Results published in patent publication US6080791A, “Method of treating a viral condition by inhibiting membrane fusion” (priority 1992, dated 2000).
Read-outs that look alike come from different tables or passages of the source.

Experiments:
[1] = test system: hemagglutinin-mediated hemolysis of human red blood cells; test: Hemolysis (HEM) assay; type: cell-based, C22 influenza virus; human red blood cells; settings: for IC50 / inhibition at 1000 µM / inhibition at 100 µM / inhibition at 10 µM: unidentified influenza virus, Erythrocyte; for inhibition at 1000 µM / inhibition at 100 µM / inhibition at 10 µM: read-out: hemolysis % ↓ OD
hemoglobin = test: Hb control (quenching of OD570 of hemoglobin); design: species or system human
low pH BHA = test: SPA POST control (nonspecific quenching); design: species or system C22 / X31 influenza virus (H3N2)
Protocol: The compounds being screened by SPA are present during scintillation counting. Some of the chemicals, particularly those that are highly colored, quench the detection of radioactivity. A control ("POST") distinguishes whether apparent inhibition arises from inhibition of the conformational change or from nonspecific effects. The test compound is added to a sample of BHA that had previously been acidified and reneutralized. The mixture is then precipitated as usual. Since the BHA treated in this manner is known to be in the low pH conformation, a reduction in measurable cpm compared to controls with ligand omitted proves the compound interferes with the detection system.
^3 H-Leu BHA was diluted to 10,000 cpm (counts per minute) per 200 μl in MSSH buffer (10 mM HEPES, 10 mM MES, 10 mM succinate, 0.10 M NaCl, pH 7.0) containing 0.1% NP40. Protein was incubated with the specified concentration of trial compound for 25 minutes at RT. The same volume of solvent used to dissolve the compound was added to control samples and the final concentration of DMSO in all solutions was 0.67% v/v. A predetermined amount of 1N HAc was added to bring the reactions to the appropriate pH (usually pH 5.0). Following a 5 minute (unless specified otherwise) incubation at RT, reactions were reneutralized with 1N NaOH. For POST controls, compounds were added to the appropriate concentration after reneutralization. 200 μL aliquots of the protein solution were added to scintillation vials containing 100 μl protein A-SPA beads (Amersham), 5% fetal bovine serum (FBS), and antibody. Vials were incubated overnight at RT with constant shaking. Each reaction used 10 μl of fusion peptide antiserum diluted 1:10 with 50% glycerol. Cpm were detected in a Beckman LS3801 scintillation counter without addition of liquid scintillant.
Apparent inhibition due to nonspecific effects was quantitated from the POST controls with the equation:
observed cpm=true cpm*quench factor

C22 virus in MDCK2 cells [2] = test system: C22 virus in MDCK2 cells
[3] = molecular target: hemagglutinin (BHA), fusion peptide exposure (Influenza A virus (A/X-31(H3N2)), UniProt P03438); type: biochemical, C22 / X31 influenza virus (H3N2)
Chain of hemagglutinin (BHA), fusion peptide exposure (Influenza A virus (A/X-31(H3N2)), UniProt P03438) (P03438 whole entry, looked up, the tested form may be a part): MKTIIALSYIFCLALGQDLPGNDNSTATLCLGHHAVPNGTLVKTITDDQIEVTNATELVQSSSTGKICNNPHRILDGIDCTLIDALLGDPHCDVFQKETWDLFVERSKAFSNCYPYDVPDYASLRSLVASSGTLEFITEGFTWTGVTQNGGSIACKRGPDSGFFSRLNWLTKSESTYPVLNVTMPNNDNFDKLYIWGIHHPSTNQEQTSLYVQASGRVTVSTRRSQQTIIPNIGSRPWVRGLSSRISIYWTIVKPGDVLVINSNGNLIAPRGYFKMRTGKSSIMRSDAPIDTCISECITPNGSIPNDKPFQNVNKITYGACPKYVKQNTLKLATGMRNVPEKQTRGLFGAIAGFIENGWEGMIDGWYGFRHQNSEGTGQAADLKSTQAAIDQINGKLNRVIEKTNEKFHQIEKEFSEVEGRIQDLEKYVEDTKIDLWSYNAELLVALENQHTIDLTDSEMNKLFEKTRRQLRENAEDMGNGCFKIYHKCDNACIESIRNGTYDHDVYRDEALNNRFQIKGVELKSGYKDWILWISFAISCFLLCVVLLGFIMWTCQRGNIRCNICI

in vitro = settings: dog, mdck
Protocol: The ELISA-based assay described below (EIA antiviral assay) was used to measure antiviral activity. Cell viability was measured in parallel to distinguish inhibition of viral replication from toxicity.
Infections of MDCK2 cells with virus, compounds, and DMSO were set up identically as for the EIA assay. Following the 15 hour incubation, test compounds were washed away with PBS. 50 μl of MDCK2 growth media and 25 μl 2 mg/ml 3-(4,5-dimethylthiazol-2-yl)-2,5-diphenyl tetrazolium bromide (Sigma) in PBS were added to each well. Plates were returned to 37° C., 5% CO2 for 4 hrs. Crystals were broken up by vigorous mixing following addition of 80 μl isopropanol/0.04 N HCl. After incubation for 30 mins at RT, OD570 was read on an ELISA reader. % Inhibition is the % reduction of OD570 in the wells infected with compound compared to otherwise identical samples with compound omitted.

[4] = test system: influenza-mediated syncytia formation, CV-1 cells
C22 virus in MDCK2 cells [5] = test: microbe, parasite or virus in culture; settings: unidentified influenza virus; for inhibition at 1 µM / inhibition at 10 µM / inhibition at 100 µM: MDCK2, 15 h, read-out: infectivity % inhibition
[6] = 0.25 h, Table 6, 10^-3 = 1 mM, low pH 15 minutes, read-out: IC50 hemolysis
[7] = Table 7, read-out: HEM, negative log of IC50 (converted)
[8] = MDCK2, read-out: IC50 infectivity
[9] = MDCK2, read-out: INF, negative log of IC50 (converted)

Compound | inhibition of hemolytic activity [1] | Hb control % ↓ OD (hemoglobin; log conc -3 (M)) [%] | cytotoxicity at 15 h, 1 µM (in vitro) [%] | cytotoxicity at 15 h, 10 µM (in vitro) [%] | cytotoxicity at 15 h, 100 µM (in vitro) [%] | IC50 [1, 6] [µM] | IC50 [1, 7] [µM] | inhibition at 1000 µM ([1]; log conc -3 (M)) [%] | syncytia, Table 6 [4] | inhibition at 1 µM (C22 virus in MDCK2 cells [5]) [%] | inhibition at 10 µM (C22 virus in MDCK2 cells [5]) [%] | inhibition at 100 µM (C22 virus in MDCK2 cells [5]) [%] | IC50 (C22 virus in MDCK2 cells [5]; [8]) [µM] | IC50 (C22 virus in MDCK2 cells [5]; [9]) [µM] | inhibition at 100 µM ([1]; log conc -4 (M)) [%] | Hb control % ↓ OD (hemoglobin; log conc -4 (M)) [%] | % inhibition, POST control (low pH BHA; log conc -3 (M)) [%] | % inhibition, POST control (low pH BHA; log conc -4 (M)) [%] | activity rank among compounds tested [3] | also measured
5,8-dihydro-5,8-methano-1,4-naphthalenediol [Compound 83] | inhibits HA-mediated hemolysis | 16.5 ± 2.1 |  |  |  |  |  |  |  |  |  |  |  |  |  |  |  |  |  | hemolysis % ↓ OD ([1]; log conc -3 (M), 1000 µM): 67.0 ± 15.1%; hemolysis % ↓ OD ([1]; log conc -4 (M), 100 µM): 17.9 ± 20.0%; hemolysis % ↓ OD ([1]; log conc -5 (M), 10 µM): 11.3 ± 10.3%; % inhibition, POST (Table 1) (low pH BHA; 1 mM, POST control): 2.1%; infectivity % inhibition (C22 virus in MDCK2 cells [2]; log conc -3 (M)): 51.1 ± 28.3%; infectivity % inhibition (C22 virus in MDCK2 cells [2]; log conc -4 (M)): 33.1 ± 20.2%; infectivity % inhibition (C22 virus in MDCK2 cells [2]; log conc -5 (M)): 8.7 ± 6.7%; infectivity % inhibition (C22 virus in MDCK2 cells [2]; log conc -6 (M)): 12.3 ± 2.5%; SPA activity [3]: significant activity
Cc1c(O)ccc(O)c1C [Compound 99, 2,3-dimethylhydroquinone] | did not | 27.8 | -4.2 ± 9 | -10.1 ± 10 | 99.4 ± 0.4 | > 1000 | > 1000 | 28.7 | toxic | 26.2 ± 8.6 | 35.9 ± 5.2 | 114 ± 12 | > 10 | > 10 |  |  |  |  |  | 
Oc1ccc(O)c2c1C1CCC2C1 [Compound 111, 3',6'-dihydroxybenzonorbornane] |  | 64.9 ± 0.5 | 1 ± 5.8 | -1.6 ± 0.8 | 41 ± 17 |  | 100 to 1000 | 36.7 ± 0.6 | morph | 21.7 ± 4.9 | 57.4 ± 25.2 | 102 ± 10.6 | 10 | 10 | -6.9 ± 9.3 | 40.4 ± 1.3 | 13.3 | 9.5 | most active | 
O=C1C=CC(=O)c2cc3ccccc3cc21 [Compound 114, 1,4-anthraquinone] |  |  | -4.3 ± 3.3 | 53.7 ± 2.1 | 102 |  |  |  | toxic | 0.2 ± 0.2 | 92.3 ± 12.7 |  |  |  |  |  |  |  |  | infectivity in Table 6 (C22 virus in MDCK2 cells [2]; Table 6): toxic; INF, words (Table 7) (C22 virus in MDCK2 cells [2]; Table 7): toxic
CC(C)(C)c1cc(O)ccc1O [Compound 117, tert-butylhydroquinone] | apparently inhibited hemolytic activity | 17.8 | -8.4 ± 7.6 | -13.7 ± 2.8 | -26.1 ± 3.3 | 100 | 100 | 116 |  | 7.5 ± 0.1 | 22.2 ± 13.2 | 53.7 ± 26.4 |  | 10 to 100 | 31.6 ± 6.9 | 9.9 ± 2.8 | -3.4 | 2.9 | most active | inhibition at 10 µM ([1]; log conc -5 (M)): 13.9%; Hb control % ↓ OD (hemoglobin; log conc -5 (M)): 7.9%; % inhibition, POST control (low pH BHA; log conc -5 (M)): 9.1%; % inhibition, POST control (low pH BHA; log conc -6 (M)): 4.7%; inhibition of syncytia formation ([4]; 1 μM): Significant inhibition was not observed; inhibition of syncytia formation ([4]; 10 μM): completely abolished the ability of the virus to induce syncytia
Cl.Nc1ccc(O)c2ccccc12 [Compound 121, 4-amino-1-naphthol hydrochloride] |  |  |  |  | 100 |  |  |  |  |  |  |  |  |  |  |  |  |  |  | IC50 ([1]; 0.25 h, read-out: IC50 hemolysis): ≥ 1000 µM; IC50 ([1]; read-out: HEM, negative log of IC50 (converted)): ≥ 1000 µM; inhibition at 10 µM [1]: -4.6 ± 0.1%; inhibition at 100 µM [1]: 31.5 ± 7.8%; inhibition at 1000 µM [1]: 116%; Hb control % ↓ OD (hemoglobin): 68.0%; INF, words (Table 7) (C22 virus in MDCK2 cells [2]): toxic; infectivity in Table 6 (C22 virus in MDCK2 cells [2]): toxic
